Source: PubChem BioAssay AID2286 (Southern Research Specialized Biocontainment Screening …, 2010)
Calls of active or inactive are those of the source.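 How the source made its calls: active means minimum cell viability of 80% or lower across the dose range, counted as toxic; inactive means minimum cell viability above 80%.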

Assay: MAGI-CCR5 and HeLa-R5-16 cytotoxicity, dose response, cytotoxicity control for HIV-1 fusion inhibitor project, cell-based, MAGI and MAGI-HeLa co-culture (AID 2286);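 further: cells exposed to compound for at least 64 h before ATP readout; 100% = median of DMSO vehicle wells with no ATP signal meaning 0%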
Conditions: MAGI-CCR5 cells viability, CellTiter-Glo ATP luminescence; for minimum viability: measured here: MAGI minimum viability across doses
[1] = MAGI-HeLa co-culture viability, at 50 µM, stronger effect = lower value
[2] = at 1.56 µM, stronger effect = lower value
[3] = at 6.25 µM, stronger effect = lower value
[4] = at 12.5 µM, stronger effect = lower value

Cc1c(CCC(=O)O)c(=O)oc2c(C)c3occ(-c4ccc(Cl)cc4)c3cc12
viability [1]: 117%
minimum viability (at 25 µM, stronger effect = lower value): 64%

CC(c1ccccc1)N1C(=O)c2ccc(C(=O)Nc3ccccc3C(=O)O)cc2C1=O (configuration not stated)
viability [1]: 111%
viability (at 50 µM (top of the series)): 100% (inactive)
minimum viability (at 25 µM, stronger effect = lower value): 85.5%

Cc1ccc(NC(=O)COc2cccc(/C=C3\SC(=S)N(CCC(=O)O)C3=O)c2)cc1Cl
viability [1]: 94%
minimum viability (at 50 µM, stronger effect = lower value): 77%

COc1cc(/C=N/NC(=O)C(Cc2c[nH]c3ccccc23)NC(=O)OCc2ccccc2)cc([N+](=O)[O-])c1O (configuration not stated)
viability [1]: 107%
viability (at 50 µM (top of the series)): 95% (inactive)
minimum viability (at 25 µM, stronger effect = lower value): 92.5%

COc1cc(/C=C2/C(=O)NN(c3ccc(C)c(Cl)c3)C2=O)cc([N+](=O)[O-])c1O
viability [1]: 103%
viability (at 50 µM (top of the series)): 107% (inactive)
minimum viability [2]: 91.2%

O=C(Nc1ccc(C(=O)O)cc1)/C(=C\C=C\c1ccccc1)NC(=O)c1cccc(Br)c1
viability [1]: 85.1%
viability (at 50 µM (top of the series)): 89.9% (inactive)
minimum viability [3]: 83.2%

COc1ccc(/C=C2/SC(=O)N(CCCCCC(=O)Nc3ccccc3C(=O)O)C2=S)cc1
viability [1]: 122%
minimum viability (at 50 µM, stronger effect = lower value): 66.9%

Cc1ccc(S(=O)(=O)/N=C2/NC(=O)/C(=C/c3cc([N+](=O)[O-])ccc3O)S2)cc1
viability [1]: 99.3%
viability (at 50 µM (top of the series)): 86% (inactive)
minimum viability (at 50 µM, stronger effect = lower value): 86%

COc1cccc(NS(=O)(=O)c2ccc3c(c2)C2C=CCC2C(c2ccc(C(=O)O)cc2)N3)c1 (configuration not stated)
viability [1]: 120%
viability (at 50 µM (top of the series)): 108% (inactive)
minimum viability [2]: 88.6%

O=C(O)C1Nc2c(cccc2C(F)(F)F)C2C=CCC12 (configuration not stated)
viability [1]: 124%
viability (at 50 µM (top of the series)): 106% (inactive)
minimum viability [4]: 86.1%

COc1ccc(C(=O)COC(=O)c2ccccc2NS(=O)(=O)c2ccc(O)c([N+](=O)[O-])c2)cc1
viability [1]: 96%
viability (at 50 µM (top of the series)): 83.3% (inactive)
minimum viability (at 50 µM, stronger effect = lower value): 83.3%

COc1ccc(OC)c(N2C(=O)/C(=C/c3ccco3)C(=O)NC2=S)c1
viability [1]: 90.2%
viability (at 50 µM (top of the series)): 94.8% (inactive)
minimum viability [3]: 83.8%

O=C(COc1cccc2ccccc12)Nc1ccc(Cl)cc1C(=O)O
viability [1]: 86.1%
minimum viability (at 50 µM, stronger effect = lower value): 67.5%

O=C(O)COc1ccc(Br)cc1C(c1c(C(=O)O)[nH]c2ccccc12)c1c(C(=O)O)[nH]c2ccccc12
viability [1]: 95.6%
viability (at 50 µM (top of the series)): 91.8% (inactive)
minimum viability (at 25 µM, stronger effect = lower value): 88%

CCOC(=O)C1=C(C)N=c2s/c(=C/c3ccc(OCC(=O)O)cc3)c(=O)n2C1c1ccc(SC)cc1 (configuration not stated)
viability [1]: 101%
viability (at 50 µM (top of the series)): 88.1% (inactive)
minimum viability (at 50 µM, stronger effect = lower value): 88.1%

O=C(N/N=C/c1cc(Br)c(O)c(Br)c1)c1cc2c(ccc3ccccc32)o1
viability [1]: 112%
viability (at 25 µM (top of the series)): 81.4% (inactive)
minimum viability (at 25 µM, stronger effect = lower value): 81.4%

CC1=NN(c2ccc(C(=O)O)cc2)C(=O)/C1=C\c1ccc(OC(=O)c2cccs2)cc1
viability [1]: 120%
viability (at 50 µM (top of the series)): 94.8% (inactive)
minimum viability [2]: 93.5%

Cc1c(Cl)cccc1NS(=O)(=O)c1ccc2c(c1)C1C=CCC1C(c1ccc(C(=O)O)cc1)N2 (configuration not stated)
viability [1]: 121%
viability (at 50 µM (top of the series)): 91% (inactive)
minimum viability [2]: 87%

COc1ccc(-c2csc(NC(=O)CSc3nc(C)nc4sc(C(=O)O)c(C)c34)n2)cc1
viability [1]: 109%
viability (at 50 µM (top of the series)): 99.7% (inactive)
minimum viability [2]: 83.4%

Cc1cn2c(N)c(C=C3C=C(Cl)C(=O)C(Cl)=C3)c(=O)nc2s1
viability [1]: 105%
viability (at 50 µM (top of the series)): 83.9% (inactive)
minimum viability (at 25 µM, stronger effect = lower value): 81.8%

CC1=C(C(=O)OC(C)C)C(c2ccc(Cl)cc2)n2c(s/c(=C\c3ccc(OCC(=O)O)cc3)c2=O)=N1 (configuration not stated)
viability [1]: 103%
minimum viability (at 50 µM, stronger effect = lower value): 73.5%

O=C(O)CSc1ncnc2c1sc1nc(-c3ccccc3)c3c(c12)CCC3
viability [1]: 111%
viability (at 50 µM (top of the series)): 98.6% (inactive)
minimum viability [4]: 92.4%

O=C(NCCc1ccccc1)c1ccc2c(=O)[nH]c3c(C(=O)NCC4CCCO4)sc(=S)n3c2c1 (configuration not stated)
viability [1]: 115%
minimum viability (at 50 µM, stronger effect = lower value): 70.9%

COc1cccc(-c2coc3c(C)c4oc(=O)c(CCC(=O)O)c(C)c4cc23)c1
viability [1]: 83.6%
minimum viability (at 50 µM, stronger effect = lower value): 55.5%

O=C(O)c1cccc(-n2cccc2/C=C2/NC(=O)N(c3ccc(Cl)cc3)C2=O)c1
viability [1]: 112%
viability (at 50 µM (top of the series)): 106% (inactive)
minimum viability [2]: 97.5%

O=c1oc2ccccc2c(O)c1C(c1ccc([N+](=O)[O-])cc1)c1c(O)c2ccccc2oc1=O
viability [1]: 133%
minimum viability (at 50 µM, stronger effect = lower value): 68.8%

O=C(O)c1[nH]c2ccccc2c1C(c1cccc(O)c1)c1c(C(=O)O)[nH]c2ccccc12
viability [1]: 95.1%
viability (at 50 µM (top of the series)): 91.2% (inactive)
minimum viability [3]: 86.4%

O=C1NC(=S)N(c2ccc(F)cc2)C(=O)/C1=C\c1ccoc1
viability [1]: 99.5%
viability (at 50 µM (top of the series)): 84.8% (inactive)
minimum viability (at 50 µM, stronger effect = lower value): 84.8%

Cc1ccccc1N/N=C/c1sc(=O)n(Cc2cccc(C(=O)O)c2)c1Cl
viability [1]: 109%
minimum viability (at 50 µM, stronger effect = lower value): 72.9%

CC(C)NC(=O)c1sc(=S)n2c1[nH]c(=O)c1ccc(C(=O)NCCc3ccc(Cl)cc3)cc12
viability [1]: 104%
minimum viability (at 50 µM, stronger effect = lower value): 55.2%

CCOC(=O)c1sc(N2C(=O)C(O)=C(C(=O)c3ccc(C)o3)C2c2cccc([N+](=O)[O-])c2)nc1C (configuration not stated)
viability [1]: 94.6%
minimum viability (at 25 µM, stronger effect = lower value): 63.8%

O=C(O)c1cc(NC(=O)c2ccc(Br)cc2)cc(NC(=O)c2ccc(Br)cc2)c1
viability [1]: 118%
viability (at 50 µM (top of the series)): 103% (inactive)
minimum viability (at 3.13 µM, stronger effect = lower value): 99.1%

O=C(O)CCN1C(=O)/C(=C\c2cccc(Oc3ccccc3)c2)SC1=S
viability [1]: 90.5%
viability (at 50 µM (top of the series)): 87.3% (inactive)
minimum viability (at 25 µM, stronger effect = lower value): 86.3%

Cc1c(CC(=O)O)c(=O)oc2c(C)c3occ(-c4ccc(Br)cc4)c3cc12
viability [1]: 123%
minimum viability (at 50 µM, stronger effect = lower value): 75.8%

O=C(CCN1C(=O)/C(=C\C=C\c2ccccc2)SC1=S)Nc1ccccc1C(=O)O
viability [1]: 121%
minimum viability (at 50 µM, stronger effect = lower value): 74.5%

N#Cc1c(-c2cccs2)nc(SCc2ccc(Cl)cc2)[nH]c1=O
viability [1]: 118%
minimum viability (at 50 µM, stronger effect = lower value): 73%

O=C(O)c1ccc(-c2ccc(/C=c3/sc4nc5ccccc5n4c3=O)o2)cc1Cl
viability [1]: 116%
viability (at 50 µM (top of the series)): 92.3% (inactive)
minimum viability (at 25 µM, stronger effect = lower value): 87.5%

CCCOc1ccc(C(=O)NNC(=S)NC(=O)c2cc(-c3ccccc3)nc3ccccc23)cc1
viability [1]: 112%
viability (at 50 µM (top of the series)): 105% (inactive)
minimum viability (at 25 µM, stronger effect = lower value): 99%

Cc1cccc(OCC(=O)Nc2ccc(C(=O)Nc3ccccc3C(=O)O)cc2)c1C
viability [1]: 93%
minimum viability (at 50 µM, stronger effect = lower value): 76.6%

CCOc1ccc(NC(=NCc2ccc3c(c2)OCO3)SC2CC(=O)N(c3ccc(C(=O)O)cc3)C2=O)cc1 (configuration not stated)
viability [1]: 81.3%
viability (at 25 µM (top of the series)): 84.3% (inactive)
minimum viability (at 25 µM, stronger effect = lower value): 84.3%

COc1cc(/C=N/Nc2ccc(Cl)c(C(=O)O)c2)ccc1OC(=O)c1ccc(F)cc1
viability [1]: 103%
viability (at 50 µM (top of the series)): 89.8% (inactive)
minimum viability (at 50 µM, stronger effect = lower value): 89.8%

O=C(COc1ccc(Cl)cc1)Nc1cc(NC(=O)COc2ccc(Cl)cc2)cc(C(=O)O)c1
viability [1]: 99.5%
viability (at 50 µM (top of the series)): 105% (inactive)
minimum viability [4]: 98.6%

CCCCCOc1ccc(C2C(C(=O)c3ccc(C)o3)=C(O)C(=O)N2c2cc(C)on2)cc1 (configuration not stated)
viability [1]: 113%
viability (at 50 µM (top of the series)): 85.1% (inactive)
minimum viability (at 25 µM, stronger effect = lower value): 84.6%

O=C(CCCN1C(=O)/C(=C/c2cccs2)SC1=S)Nc1ccc(O)c(C(=O)O)c1
viability [1]: 106%
minimum viability (at 50 µM, stronger effect = lower value): 62.3%

COc1cc(/C=C2/C(=N)N3C(=NC2=O)SN=C3S(C)(=O)=O)ccc1OS(=O)(=O)c1ccccc1
viability [1]: 94.8%
viability (at 50 µM (top of the series)): 87% (inactive)
minimum viability (at 25 µM, stronger effect = lower value): 84.7%

O=C(CN1C(=O)S/C(=C\C=C\c2ccccc2)C1=O)Nc1ccccc1C(=O)O
viability [1]: 103%
viability (at 50 µM (top of the series)): 90.4% (inactive)
minimum viability [4]: 83.6%

C=CCOC(=O)C1=C(C)N=c2s/c(=C3\C(=O)N(CC(=O)O)c4ccccc43)c(=O)n2C1c1ccc(OC)cc1 (configuration not stated)
viability [1]: 105%
viability (at 50 µM (top of the series)): 97.3% (inactive)
minimum viability (at 25 µM, stronger effect = lower value): 85.1%

O=C(Nc1ccc(-c2nc3ccccc3[nH]2)cc1)c1ccccc1NS(=O)(=O)c1ccc(F)cc1
viability [1]: 116%
minimum viability (at 50 µM, stronger effect = lower value): 64.3%

CCOc1cc(/C=N/N=C2/NC(=O)C(CC(=O)O)S2)ccc1OCc1ccc(Cl)cc1Cl (configuration not stated)
viability [1]: 98.7%
viability (at 50 µM (top of the series)): 96% (inactive)
minimum viability [4]: 83.9%

O=C(O)CN1C(=O)/C(=C\c2cccc(OCc3ccc(Cl)cc3Cl)c2)SC1=S
viability [1]: 126%
viability (at 50 µM (top of the series)): 95.6% (inactive)
minimum viability [4]: 80.7%

O=C(O)c1[nH]c2ccccc2c1C(c1c(F)cccc1Cl)c1c(C(=O)O)[nH]c2ccccc12
viability [1]: 114%
viability (at 50 µM (top of the series)): 104% (inactive)
minimum viability (at 0.1 µM, stronger effect = lower value): 87.9%

C=CCOc1ccc(C(c2c(C(=O)O)[nH]c3ccccc23)c2c(C(=O)O)[nH]c3ccccc23)cc1
viability [1]: 89%
viability (at 50 µM (top of the series)): 91.1% (inactive)
minimum viability (at 25 µM, stronger effect = lower value): 85.9%

CC(C)S(=O)(=O)C1=NSC2=NC(=O)/C(=C\c3ccc(-c4ccccc4)o3)C(=N)N21
viability [1]: 123%
minimum viability (at 50 µM, stronger effect = lower value): 73.2%

O=C1NC(=O)/C(=C/c2ccc(-c3cc(C(=O)O)ccc3Cl)o2)S1
viability [1]: 105%
viability (at 50 µM (top of the series)): 91% (inactive)
minimum viability [3]: 88.5%

O=C(COc1ccc2ccccc2c1)Nc1cccc(C(=O)Nc2ccccc2C(=O)O)c1
viability [1]: 101%
viability (at 50 µM (top of the series)): 83.3% (inactive)
minimum viability (at 50 µM, stronger effect = lower value): 83.3%
